Earlier results, collected in US20060199791A1, “Anti-microbial composition comprising a metal ion chelating agent” (AQ+ PLC, priority 2001, published 2006).

tested on: long term sinus infection; settings: patient history, infection for some 14 to 15 years

Question: Which “response of the sinus infection to earlier antibiotic treatment” value (“response of the sinus infection” for short) does the source give for `O=C(O)c1cn(C2CC2)c2cc(N3CCNCC3)c(F)cc2c1=O` [Cipro] here?
Answer: Its value is “resistant to treatment”.

Question: Which “response of the sinus infection” value does the source give for `CCC[C@@H]1C[C@@H](C(=O)N[C@@H]([C@H]2O[C@H](SC)[C@H](O)[C@@H](O)[C@H]2O)[C@H](C)Cl)N(C)C1` [Clindramycin] here?
Answer: The value was “resistant to treatment”.

Question: With `CC1(C)S[C@@H]2[C@H](NC(=O)[C@H](N)c3ccc(O)cc3)C(=O)N2[C@H]1C(=O)O` [Trimox] as the compound, how does the “response of the sinus infection” value read?
Answer: Its value is “resistant to treatment”.

Question: Which “response of the sinus infection” value does the source give for `CC1(C)S[C@@H]2[C@H](NC(=O)COc3ccccc3)C(=O)N2[C@H]1C(=O)O` [Veetids] here?
Answer: The value was “resistant to treatment”.
